Experimental data from patent US8071768B2, “Alkylquinoline and alkylquinazoline kinase modulators” (Janssen Pharmaceutica, N.V., priority 2005, dated 2011).

What follows are molecules tested against T1, TrkB (Homo sapiens, UniProt Q16620) (assay: Trk B Fluorescence Polarization Kinase Assay). Details: uncertainty ±10%.
T1 construct: purchased Upstate 14-507M
Assay type: biochemical
Experimental: Trk B Fluorescence Polarization Kinase Assay (TrkB IC50 Data)
The compounds of the present invention are also specific inhibitors of TrkB. Selection of preferred compounds of Formula I for use as TrkB inhibitors was performed in the following manner. The TrkB assay utilized the fluorescein-labeled phosphopeptide and the anti-phosphotyrosine antibody included in the Panvera Phospho-Tyrosine Kinase Kit (Green) supplied by Invitrogen. When TrkB phosphorylated poly Glu4Tyr, the fluorescein-labeled phosphopeptide was displaced from the anti-phosphotyrosine antibody by the phosphorylated poly Glu4Tyr, thus decreasing the FP value. The TrkB kinase reaction was incubated at room temperature for 30 minutes under the following conditions: 50 nM TrkB (Upstate, catalog # 14-507M), 20 ug/mL poly Glu4Tyr, 150 uM ATP, 5 mM MgCl2, 1% compound in DMSO. The kinase reaction was stopped with the addition of EDTA. The fluorescein-labeled phosphopeptide and the anti-phosphotyrosine antibody were added and incubated for 30 minutes at room temperature. Data points were an average of triplicate samples. Inhibition and IC50 data analysis were done with GraphPad Prism using a non-linear regression fit with a multiparamater, sigmoidal dose-response (variable slope) equation.

T1 sequence (Q16620 32-822): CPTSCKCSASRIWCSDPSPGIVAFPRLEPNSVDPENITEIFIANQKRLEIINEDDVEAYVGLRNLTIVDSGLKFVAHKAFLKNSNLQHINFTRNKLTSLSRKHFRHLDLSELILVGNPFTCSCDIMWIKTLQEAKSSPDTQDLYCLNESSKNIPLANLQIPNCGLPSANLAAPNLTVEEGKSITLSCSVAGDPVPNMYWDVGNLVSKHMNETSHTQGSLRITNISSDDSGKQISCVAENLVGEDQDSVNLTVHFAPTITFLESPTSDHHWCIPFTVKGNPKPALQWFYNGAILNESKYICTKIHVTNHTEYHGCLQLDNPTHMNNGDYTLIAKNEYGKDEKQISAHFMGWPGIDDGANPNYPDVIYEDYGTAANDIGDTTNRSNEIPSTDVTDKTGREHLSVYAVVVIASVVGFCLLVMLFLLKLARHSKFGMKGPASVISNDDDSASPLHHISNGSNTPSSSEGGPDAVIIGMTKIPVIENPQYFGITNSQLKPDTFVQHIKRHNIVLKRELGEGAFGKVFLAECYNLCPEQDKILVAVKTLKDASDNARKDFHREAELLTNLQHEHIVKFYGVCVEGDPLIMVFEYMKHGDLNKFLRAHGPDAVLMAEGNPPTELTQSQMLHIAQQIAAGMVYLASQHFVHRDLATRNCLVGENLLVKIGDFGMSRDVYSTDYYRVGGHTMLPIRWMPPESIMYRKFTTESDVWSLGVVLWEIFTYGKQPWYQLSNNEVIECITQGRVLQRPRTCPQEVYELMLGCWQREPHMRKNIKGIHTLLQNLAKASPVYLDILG

SMILES	IC50
COc1cc2ncnc(C3CCN(C(=O)Cc4ccc(C(C)C)cc4)CC3)c2cc1OC [Compound 28, 1-[4-(6,7-Dimethoxy-quinazolin-4-yl)-piperidin-1-yl]-2-(4-isopropyl-phenyl)-ethanone]	100 nM
COc1cc2ncnc(C3CCN(C(=O)Nc4ccc(C(F)(F)F)cc4)CC3)c2cc1OC [Compound 46, 4-(6,7-Dimethoxy-quinazolin-4-yl)-piperidine-1-carboxylic acid (4-trifluoromethyl-phenyl)-amide]	18300 nM
CC(C)Oc1ccc(NC(=O)N2CCC(c3ncnc4ccc(C#CCO)cc34)CC2)cc1 [Compound 12, 4-[6-(3-Hydroxy-prop-1-ynyl)-quinazolin-4-yl]-piperidine-1-carboxylic acid (4-isopropoxy-phenyl)-amide]	500 nM
COc1cc2ncnc(C3CCN(C(=O)Nc4ccc(OC5CCCC5)nc4)CC3)c2cc1OC [Compound 69, 4-(6,7-Dimethoxy-quinazolin-4-yl)-piperidine-1-carboxylic acid (6-cyclopentyloxy-pyridin-3-yl)-amide]	150 nM
CS(=O)(=O)NCCCOc1ccc2c(C3CCN(C(=O)Nc4ccc(N5CCCC5)nc4)CC3)ncnc2c1 [Compound 86, 4-[7-(3-Methanesulfonylamino-propoxy)-quinazolin-4-yl]-piperidine-1-carboxylic acid (6-pyrrolidin-1-yl-pyridin-3-yl)-amide]	2000 nM
CCC(C)c1ccc(NC(=O)N2CCC(c3ncnc4cc(OC)c(OC)cc34)CC2)cc1 (centres unmarked) [Compound 52, 4-(6,7-Dimethoxy-quinazolin-4-yl)-piperidine-1-carboxylic acid (4-sec-butyl-phenyl)-amide]	1200 nM

Second part, the molecule after the results:

IC50	SMILES
2200 nM	CCOc1ccc(NC(=O)N2CCC(c3ncnc4cc(OC)c(OC)cc34)CC2)cc1 [Compound 44, 4-(6,7-Dimethoxy-quinazolin-4-yl)-piperidine-1-carboxylic acid (4-ethoxy-phenyl)-amide]
8100 nM	COc1cc2ncnc(C3CCN(C(=O)Nc4ccc(-c5ccc(Cl)nc5)cc4)CC3)c2cc1OC [Compound 60, 4-(6,7-Dimethoxy-quinazolin-4-yl)-piperidine-1-carboxylic acid [4-(6-chloro-pyridin-3-yl)-phenyl]-amide]
37800 nM	COc1cc2ncnc(C3CCN(C(=O)Nc4ccc(C5CCNCC5)cc4)CC3)c2cc1OC [Compound 64, 4-(6,7-Dimethoxy-quinazolin-4-yl)-piperidine-1-carboxylic acid (4-piperidin-4-yl-phenyl)-amide]
900 nM	CC(C)Oc1ccc(NC(=O)N2CCC(c3ncnc4cc(OCCCN5CCCCC5)ccc34)CC2)cc1 [Compound 33, 4-(7-(3-Piperidin-1-yl-propoxy)-quinazolin-4-yl)-piperidine-1-carboxylic acid (4-isopropoxy-phenyl)-amide]
7050 nM	CN1CCN(CCOc2ccc3c(C4CCN(C(=O)Nc5ccc(N6CCCC6)cc5)CC4)ncnc3c2)CC1 [Compound 157, 4-{7-[2-(4-Methyl-piperazin-1-yl)-ethoxy]-quinazolin-4-yl}-piperidine-1-carboxylic acid (4-pyrrolidin-1-yl-phenyl)-amide]
2800 nM	CC(C)Oc1ccc(NC(=O)N2CCC(c3ncnc4cc(OCCN5CCCCC5)ccc34)CC2)cc1 [Compound 34, 4-(7-(2-Piperindin-1-yl-ethoxy)-quinazolin-4-yl)-piperidine-1-carboxylic acid (4-isopropoxy-phenyl)-amide]
> 42000 nM	CN1CCC(COc2ccc3c(C4CCN(C(=O)Nc5ccc(N6CCOCC6)cc5)CC4)ncnc3c2)CC1 [Compound 94, 4-[7-(1-Methyl-piperidin-4-ylmethoxy)-quinazolin-4-yl]-piperidine-1-carboxylic acid (4-morpholin-4-yl-phenyl)-amide]
13600 nM	CN1CCC(Oc2ccc3c(C4CCN(C(=O)Nc5ccc(N6CCOCC6)cc5)CC4)ncnc3c2)CC1 [Compound 127, 4-[7-(1-Methyl-piperidin-4-yloxy)-quinazolin-4-yl]-piperidine-1-carboxylic acid (4-morpholin-4-yl-phenyl)-amide]
